Reference: US20260224714A1, “CYCLING LYSOSOMAL TARGETING ANTIBODY CONJUGATES” (Lycia Therapeutics, Inc., priority 2023, published 2026)

Tests used:
Assay type in all cases: cell-based
[1] = test system: Alexa Fluor647 labelled human IgE; experiment: Uptake assay: internalization of Alexa Fluor 647 labelled IgE in wild type HepG2 cells (Example 6); conditions: equimolar conjugate and AF647 IgE, 2 hours, median cellular AF647 intensity by flow cytometry, normalized to unconjugated parent protein
Description: (§1) The following experiments were performed with HepG2 hepatocellular carcinoma cells, grown in Eagle's Minimal Essential Media (EMEM) supplemented with 10% FBS and penicillin/streptomycin.
(§2) HepG2 cells (25,000) were plated in 96-well plates 48 hours before the experiment was performed. On the day of the experiment, indicated the conjugate was mixed with an equimolar stock of Alexa Fluor647 labelled human IgE (Enzo Life Sciences, BPD-DIA-HE 1) in fresh EMEM as a 600 nM stock. The precomplexed conjugate:IgE mixture was incubated at room temperature for 30 minutes. During the precomplexing step, media from HepG2 was removed, and 40 ul of EMEM with 1/100 Fc Receptor Blocking Solution (Biolegend Human TruStain FcX, 422302) was added. Cells incubated in the receptor blocking solution for 10 minutes while making serial dilutions (1:3) of conjugate:IgE stock solution in EMEM. 40 ul of the conjugate:IgE mixture in EMEM was then added to cells (six dilutions, with final concentrations ranging from 300 nM to 1.23 nM) for 2 hours before washing with DPBS and detaching with 0.25% Trypsin/EDTA. Cells were pelleted in 96-well conical bottom plates, washed once with FACS Buffer with BSA (Rockland Immunochemicals), and resuspended in FACS Buffer with BSA. Uptake of fluorescently labelled IgE was measured by analyzing median cellular AF647 intensity by flow cytometry.
(§3) Cells were incubated with equimolar ratio of conjugate and AF647 IgE at indicated concentrations, with data normalized to unconjugated parent protein (Oma S35HWY57H-LC).

[2] = test system: Alexa Fluor647 labelled human IgE; experiment: Uptake assay: internalization of Alexa Fluor 647 labelled IgE in ASGPR1/2 KO HepG2 cells (Example 6); conditions: equimolar conjugate and AF647 IgE, normalized to unconjugated parent protein
Description: as §1, §2, §3

[3] = test system: LysoLight-labelled human IgE; experiment: Lysosomal degradation of LysoLight-labelled IgE in HepG2 cells, live cell imaging (Example 7); conditions: equimolar conjugate:LysoLight IgE, area under the curve of deep red fluorescence over three days, normalized to unconjugated parent protein
Description: as §1
HepG2 cells (15,000) were plated in 96-well plates 72 hours before performing the experiment. On the day of the experiment, indicated the conjugate was diluted in fresh EMEM and mixed with an equimolar stock of LysoLight-labelled human IgE (Enzo Life Sciences, BPD-DIA-HE1), at 200 nM of each compound. The precomplexed conjugate:IgE mixture was incubated at room temperature for 30 minutes. During the precomplexing step, media from HepG2 was removed, and 40 ul of EMEM with 1/100 Fc Receptor Blocking Solution (Biolegend Human TruStain FcX, 422302) was added. Cells incubated in the receptor blocking solution for 10 minutes while making serial dilutions (1:3) of conjugate:IgE stock solution in EMEM. 40 ul of the conjugate:IgE mixture in EMEM was then added to cells (five dilutions, with final concentrations ranging from 100 nM to 1.23 nM). Cells were placed in an IncuCyte Live-Cell Analysis System (Sartorius) for long term live cell imaging analysis (10× magnification, 3 images per well). One hour after addition of compound, image acquisition to measure red fluorescence from the LysoLight probe was started, with further Images collected every hour for 72 hours. Fluorescence of the LysoLight probe only occurs when cleaved by lysosomal cathepsin proteases, confirming lysosomal delivery and degradation of target. After 72 hours, mean red fluorescence was measured for each time point, and the area under the curve of fluorescence overtime was used to measure total degradation over the 3-day time period.

HepG2 cells = experiment: Externalization of conjugates from a cell following internalization (cycling), high-throughput format (Example 11); conditions: 50 nM conjugate 1 hour, stringent washes, Alexa Fluor 647-labelled a-human IgG 1 hour, FACS, normalized to unconjugated parent protein, average of two replicate wells
Description: as §1
The method was also adapted to a high-throughput format. In this assay, 25,000 HepG2 cells were plated in 96-well plates 48 hours before performing the experiment. The day of the experiment, cells were incubated with conjugate at indicated concentrations for 1 hour. Cells were then placed on ice to prevent trafficking/recycling during wash steps, and washed once with DPBS, once with sodium acetate buffer (20 mM, 150 mM NaCl, pH 5.2), once with Earle's Balanced Salt Solution (EBSS) adjusted to pH 2.5, and once again with DPBS, to remove conjugate from media and cell surface. Afterwards, 100 ul of prewarmed (to 37° C.) EMEM with 1 μg/ml of human a-IgG antibody conjugated to Alexa Fluor647 fluorophores was added to cells for 1 hour before washing with DPBS and detaching with 0.25% Trypsin/EDTA. Cells were pelleted in 96-well conical bottom plates, washed once with FACS Buffer with BSA (Rockland Immunochemicals), resuspended FACS Buffer with BSA and median AF647 intensity was analyzed by flow cytometry. The amount of conjugate capable of cycling to the cell surface (being externalized from the cell) and binding to the Alexa Fluor647 labelled α-IgG was measured by analyzing median cellular 647 fluorescence intensity by flow cytometry. […]. Reported values are the average of the values of two replicate wells.

human IgE = experiment: Degradation of initial and subsequent dose of target in HepG2 cells (Example 12, Table 30); conditions: normalized to unconjugated; for Normalized Fluorescence Post Wash Median Green: after wash, probe-conjugated IgE added for 4 hours, subsequent dose of target; for Normalized Fluorescence Precomplex Median Deep Red: precomplexed equimolar conjugate:IgE (cathepsin-cleavable quenched fluorescent probe) added for 2 hours, initial dose of target
Description: as §1
HepG2 cells (25,000) were plated in 96-well plates 48 hours before performing the experiment. On the day of the experiment, indicated conjugate was diluted in fresh EMEM as a 2× stock, and mixed with an equimolar stock of human IgE (Enzo Life Sciences, BPD-DIA-HE 1) conjugated to a cathepsin-cleavable quenched fluorescent probe. The precomplexed conjugate:IgE mixture was incubated at 37 degrees Celsius for 30 minutes. Media from HepG2 was removed, and conjugate:IgE mixture in EMEM was added to cells for 2 hours. Cells were then placed on ice to prevent trafficking/recycling during wash steps, and washed once with DPBS, once with sodium acetate buffer (20 mM, 150 mM NaCl, pH 5.2), once with Earle's Balanced Salt Solution (EBSS) adjusted to pH 2.5, and once again with DPBS, to remove conjugate from media and cell surface. Afterwards, 100 ul of prewarmed (to 37 degrees Celsius) EMEM with cathepsin-cleavable quenched fluorescent probe-conjugated IgE was added to cells for 4 hours before washing with DPBS and detaching with 0.25% Trypsin/EDTA. Cells were pelleted in 96-well conical bottom plates, washed once with FACS Buffer with BSA (Rockland Immunochemicals), resuspended FACS Buffer with BSA and median 488 and 647 intensity was analyzed by flow cytometry. Delivery of labelled IgE to the lysosome and subsequent cleavage of initial precomplexed IgE was measured by analyzing median cellular 647 intensity, while cleavage of the post wash addition of IgE, which should only be degraded by recycling conjugates which released the first round of precomplexed IgE, was analyzed by median cellular 488 intensity. HepG2 cells were treated with human IgE (Enzo Life Sciences, BPD-DIA-HE1) conjugated to a cathepsin-cleavable quenched deep red (647) fluorescent probe precomplexed to conjugate fortwo hours, then washed, and fresh media with IgE conjugated to a green (488) cathepsin-cleavable fluorescent probe was then added without conjugate. […] Fluorescence values were measured by FACS and normalized to unconjugated parent protein. Reported values are the average of the values of two replicate wells.

recombinant IgE = experiment: Degradation of super-stoichiometric levels of target in HepG2 cells (Example 13, Table 31); conditions: 1 nM conjugate and 25 nM IgE for three days, (A-B)/C IgE depleted relative to conjugate, average of two replicate wells
Description: as §1
For evaluation of compounds in a high throughput format, 25,000 HepG2 cells were plated in a 96-well plate. The following day, 50 ul of 1 nM conjugate and 25 nM recombinant IgE in EMEM were added to the cells. 50 ul of the initial stock of conjugate:IgE was saved to quantify for an initial time point. Three days later, the media was collected from cells, and both initial and 72 hour time points were quantified for IgE concentration using the MSD assay.
HepG2 cells were incubated in media containing 1 nM conjugate and 25 nM IgE for three days. Concentrations of IgE at beginning and end of experiment were quantified by ELISA-based assay. Molar equivalents of IgE depleted relative to conjugate added are shown, calculated as (A-B)/C, where A is the initial concentration of IgE, B is the concentration of IgE at day three, and C is the concentration of conjugate. Reported values are the average of the values of two replicate wells.

## O=C(CCOCCOCCOCCNS(=O)(=O)c1ccc(N2C(=O)C=CC2=O)cc1)NC(CCCNC(=O)NCCOCCOCCOCC(F)(F)c1cncc(N[C@H]2CO[C@H](CO)[C@H](O)[C@@H]2O)n1)(CCCNC(=O)NCCOCCOCCOCC(F)(F)c1cncc(N[C@H]2CO[C@H](CO)[C@H](O)[C@@H]2O)n1)CCCNC(=O)NCCOCCOCCOCC(F)(F)c1cncc(N[C@H]2CO[C@H](CO)[C@H](O)[C@@H]2O)n1 [Compound 2327]
[1]
  Normalized Fluorescence 3.7 nM WT: 133.1
  Normalized Fluorescence 100 nM WT: 268.8
[2]
  Normalized Fluorescence 100 nM ASGPR KO: 1.0
[3]
  Normalized Fluorescence 3.7 nM: 24.0
  Normalized Fluorescence 100 nM: 2.7
HepG2 cells
  Normalized Fluorescence: 71.2
Human IgE
  Normalized Fluorescence Post Wash Median Green: 4.6
  Normalized Fluorescence Precomplex Median Deep Red: 3.7
Recombinant IgE
  Average Degradation (Molar equivalents): 9.2 Molar equivalents

## COC[C@H]1OC[C@H](Nc2nc(OCCOCCOCCNC(=O)NCCCC(CCCNC(=O)NCCOCCOCCOc3cc(C(F)(F)F)nc(N[C@H]4CO[C@H](COC)[C@H](O)[C@@H]4O)n3)(CCCNC(=O)NCCOCCOCCOc3cc(C(F)(F)F)nc(N[C@H]4CO[C@H](COC)[C@H](O)[C@@H]4O)n3)NC(=O)CCOCCOCCOCCNS(=O)(=O)c3ccc(N4C(=O)C=CC4=O)cc3)cc(C(F)(F)F)n2)[C@@H](O)[C@H]1O [Compound 2309]
[1]
  Normalized Fluorescence 3.7 nM WT: 38.9
  Normalized Fluorescence 100 nM WT: 201.6
[2]
  Normalized Fluorescence 100 nM ASGPR KO: 1.1
[3]
  Normalized Fluorescence 3.7 nM: 6.7
  Normalized Fluorescence 100 nM: 3.1
HepG2 cells
  Normalized Fluorescence: 27.1
Human IgE
  Normalized Fluorescence Post Wash Median Green: 2.5
  Normalized Fluorescence Precomplex Median Deep Red: 3.0
Recombinant IgE
  Average Degradation (Molar equivalents): 4.1 Molar equivalents

## O=C(CCOCCOCCOCCNS(=O)(=O)c1ccc(N2C(=O)C=CC2=O)cc1)NC(CCCNC(=O)NCCOCCOCCCc1cncc(N[C@H]2CO[C@H](CO)[C@H](O)[C@@H]2O)n1)(CCCNC(=O)NCCOCCOCCCc1cncc(N[C@H]2CO[C@H](CO)[C@H](O)[C@@H]2O)n1)CCCNC(=O)NCCOCCOCCCc1cncc(N[C@H]2CO[C@H](CO)[C@H](O)[C@@H]2O)n1 [Compound 2303]
[1]
  Normalized Fluorescence 3.7 nM WT: 70.6
  Normalized Fluorescence 100 nM WT: 232.7
[2]
  Normalized Fluorescence 100 nM ASGPR KO: 1.1
[3]
  Normalized Fluorescence 3.7 nM: 10.2
  Normalized Fluorescence 100 nM: 3.7
HepG2 cells
  Normalized Fluorescence: 52.7
Human IgE
  Normalized Fluorescence Post Wash Median Green: 3.6
  Normalized Fluorescence Precomplex Median Deep Red: 3.4
Recombinant IgE
  Average Degradation (Molar equivalents): 3.6 Molar equivalents

## CC(=O)N[C@H]1[C@H](OCCCCC(=O)NCCCNC(=O)CCOCC(COCCC(=O)NCCCNC(=O)CCCCO[C@@H]2O[C@H](CO)[C@H](O)[C@H](O)[C@H]2NC(C)=O)(COCCC(=O)NCCCNC(=O)CCCCO[C@@H]2O[C@H](CO)[C@H](O)[C@H](O)[C@H]2NC(C)=O)NC(=O)CCCCCCCCCCC(=O)NCCN2C(=O)C=CC2=O)O[C@H](CO)[C@H](O)[C@@H]1O [Compound 2401-C]
[1]
  Normalized Fluorescence 3.7 nM WT: 10.3
  Normalized Fluorescence 100 nM WT: 44.7
[2]
  Normalized Fluorescence 100 nM ASGPR KO: 1.2
[3]
  Normalized Fluorescence 3.7 nM: 1.1
  Normalized Fluorescence 100 nM: 1.8
HepG2 cells
  Normalized Fluorescence: 3.2
Human IgE
  Normalized Fluorescence Post Wash Median Green: 1.2
  Normalized Fluorescence Precomplex Median Deep Red: 1.7
Recombinant IgE
  Average Degradation (Molar equivalents): −1.0 Molar equivalents
